What was measured:
Type in all cases: in vivo
Corn = assay: Field trial in corn, pre-emergence method: crop damage
Description: (§1) The herbicidal efficacy of the active compounds or active compound mixtures was scored visually using the treated plots in comparison to untreated control plots. The damage and development of all above-ground parts of the plants were recorded. Scoring was carried out using a percentage scale (100% effect=all plants killed; 50% effect=50% of the plants and the green parts of the plants killed; 0% effect no noticeable effect=like control plot). The scores of in each case 4 plots were averaged.
(§2) Crop plants were grown outdoors on plots under natural outdoor conditions, and seeds or rhizome pieces of typical harmful plants were laid out or the natural weed growth was utilized. Treatment with the compositions according to the invention was carried out after the harmful plants had emerged and the crop plants were, generally, at the 2- to 4-leaf stage; in some cases (as stated), application of individual active compounds or active compound combinations was carried out pre-emergence (cf. Section 1) or post-emergence (cf. Section 2) or as a sequential treatment partly pre-emergence and/or post-emergence. After the application, for example 2, 4, 6 and 8 weeks after the application, the effect of the preparations was scored visually by comparison with untreated controls (cf. scoring in Section 1). In the field trial as well, the compositions according to the invention have synergistic herbicidal activity against a broad spectrum of economically important weed grasses and broad-leaved weeds. […] Moreover, the effects in essential phases of the scoring period were above the expected values according to Colby, also indicating synergism. In contrast, the crop plants were, as a consequence of the treatments with the herbicidal compositions, damaged only to a small degree, if at all.
(§3) The numbers in the columns of the table under the designations of the harmful plants and the crop plants relate to the herbicidal effects or damage to the plants in percent.

ECHCG = assay: Field trial in corn, pre-emergence method: herbicidal effect on ECHCG; details: evaluation 36 days after application
Description: as §1, §2, §3

CHEAL = assay: Field trial in corn, pre-emergence method: herbicidal effect on CHEAL; details: evaluation 36 days after application
Description: as §1, §2, §3

[1] = system: APESV = Apera spica-venti (common wind grass); assay: Field trial in winter wheat, post-emergence method: herbicidal effect on APESV; details: post-emergence at middle tillering stage, evaluation 21 days after application, dose 50 g ai/ha
Description: as §1
(§4) Crop plants were grown outdoors on plots under natural outdoor conditions, and seeds or rhizome pieces of typical harmful plants were laid out or the natural weed growth was utilized. Treatment with the compositions according to the invention was carried out after the harmful plants had emerged and the crop plants were, generally, at the 2- to 4-leaf stage; in some cases (as stated), application of individual active compounds or active compound combinations was carried out pre-emergence (cf. Section 1) or post-emergence (cf. Section 2) or as a sequential treatment partly pre-emergence and/or post-emergence. After the application, for example 2, 4, 6 and 8 weeks after the application, the effect of the preparations was scored visually by comparison with untreated controls (cf. scoring in Section 1). […]

Winter wheat = assay: Field trial in winter wheat, post-emergence method: crop damage; details: post-emergence at middle tillering stage, evaluation 21 days after application, dose 50 g ai/ha
Description: as §1, §4

[2] = field trial, pre-emergence, evaluation 36 days after application, dose 75 g ai/ha

SMILES | Corn [damage in %] (Corn; [2]) [%] | ECHCG [effect in %] (ECHCG; dose 75 g ai/ha) [%] | CHEAL [effect in %] (CHEAL; dose 75 g ai/ha) [%] | APESV [effect in %] [1] [%] | Winter wheat [damage in %] (Winter wheat) [%] | other results
CC(F)c1nc(N)nc(C(C)c2ccc(F)c(F)c2)n1 (stereo not shown) [(A11), 2-amino-4-(1-fluoroethyl)-6-[1-(3,4-difluorophenyl)ethyl]-1,3,5-triazine] | 0 | 0 | 0 | – | – | –
CCC(F)c1nc(N)nc(C(C)c2ccc(F)c(C)c2)n1 (stereo not shown) [(A20), 2-amino-4-(1-fluoropropyl)-6-[1-(3-methyl-4-fluorophenyl)ethyl]-1,3,5-triazine] | 0 | 0 | 20 | – | – | –
CCC(F)c1nc(N)nc(C(C)c2ccc(F)c(Cl)c2)n1 (stereo not shown) [(A50), 2-amino-4-(1-fluoropropyl)-6-[1-(3-chloro-4-fluorophenyl)ethyl]-1,3,5-triazine] | – | – | – | 0 | 0 | –
CCC(F)c1nc(N)nc(C(C)c2cc(F)cc(F)c2)n1 (stereo not shown) [(A60), 2-amino-4-(1-fluoropropyl)-6-[1-(3,5-difluorophenyl)ethyl]-1,3,5-triazine] | – | – | – | 0 | 0 | –
CS(=O)(=O)c1cc(C(F)(F)F)ccc1C(=O)c1cnoc1C1CC1 [(B3.4.4), isoxaflutole, reference compound] | – | – | – | – | – | Corn [damage in %] (Corn; corn, in vivo, 36 days): 0%; ECHCG [effect in %] (ECHCG; dose 50 g ai/ha): 86%; CHEAL [effect in %] (CHEAL; dose 50 g ai/ha): 25%

— patent publication US20030087761A1, “Synergistic active compound combinations for controlling harmful plants” (priority 2001, published 2003)
